Results reported in patent US20260028326A1, “COMPOUND BASED ON ISOINDOLINE-SUBSTITUTED GLUTARIMIDE BACKBONE AND USE THEREOF” (GLUETACS THERAPEUTICS (SHANGHAI) CO., LTD., priority 2022, published 2026).

Key:
GSPT1 protein = GSPT1 protein (Homo sapiens (Human), UniProt P15170+Q96SW2); assay: Western-blot assay of substrate protein degradation in hPBMC, GSPT1; type: cell-based; conditions: hPBMC cells, compound 500 nM, 24 hours, Western blot
IKZF3 protein = IKZF3 protein (Homo sapiens (Human), UniProt Q96SW2+Q9UKT9); assay: Western-blot assay of substrate protein degradation in hPBMC, IKZF3; type: cell-based; conditions: hPBMC cells, compound 500 nM, 24 hours, Western blot
Chain of IKZF3 protein (Q9UKT9 whole entry): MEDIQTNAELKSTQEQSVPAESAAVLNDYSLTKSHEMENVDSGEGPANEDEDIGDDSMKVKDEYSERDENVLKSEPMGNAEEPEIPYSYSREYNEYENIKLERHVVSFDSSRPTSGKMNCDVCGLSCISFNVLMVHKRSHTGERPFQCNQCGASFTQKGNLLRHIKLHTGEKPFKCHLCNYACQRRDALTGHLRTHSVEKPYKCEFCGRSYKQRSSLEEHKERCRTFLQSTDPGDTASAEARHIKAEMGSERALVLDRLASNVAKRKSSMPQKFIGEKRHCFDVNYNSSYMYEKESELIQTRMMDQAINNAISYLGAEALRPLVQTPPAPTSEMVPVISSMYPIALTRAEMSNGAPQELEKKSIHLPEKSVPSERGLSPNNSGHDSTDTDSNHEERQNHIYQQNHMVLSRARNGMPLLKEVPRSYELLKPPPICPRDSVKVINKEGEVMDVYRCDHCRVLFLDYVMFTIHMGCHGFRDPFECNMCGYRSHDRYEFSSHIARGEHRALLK
Chain of IKZF3 protein (Q96SW2 whole entry): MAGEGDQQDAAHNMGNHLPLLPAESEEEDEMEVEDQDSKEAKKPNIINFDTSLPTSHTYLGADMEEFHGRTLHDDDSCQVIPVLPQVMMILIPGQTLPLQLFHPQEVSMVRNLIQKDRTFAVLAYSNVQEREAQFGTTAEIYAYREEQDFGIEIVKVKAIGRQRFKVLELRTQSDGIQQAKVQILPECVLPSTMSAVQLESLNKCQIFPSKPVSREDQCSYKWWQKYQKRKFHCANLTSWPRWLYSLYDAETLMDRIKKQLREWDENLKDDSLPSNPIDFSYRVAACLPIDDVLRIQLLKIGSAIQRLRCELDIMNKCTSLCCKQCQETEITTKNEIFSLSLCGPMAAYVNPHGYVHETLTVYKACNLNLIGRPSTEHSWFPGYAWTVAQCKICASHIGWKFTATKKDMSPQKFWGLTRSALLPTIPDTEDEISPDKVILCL
Chain of IKZF3 protein (Q16531 whole entry partner): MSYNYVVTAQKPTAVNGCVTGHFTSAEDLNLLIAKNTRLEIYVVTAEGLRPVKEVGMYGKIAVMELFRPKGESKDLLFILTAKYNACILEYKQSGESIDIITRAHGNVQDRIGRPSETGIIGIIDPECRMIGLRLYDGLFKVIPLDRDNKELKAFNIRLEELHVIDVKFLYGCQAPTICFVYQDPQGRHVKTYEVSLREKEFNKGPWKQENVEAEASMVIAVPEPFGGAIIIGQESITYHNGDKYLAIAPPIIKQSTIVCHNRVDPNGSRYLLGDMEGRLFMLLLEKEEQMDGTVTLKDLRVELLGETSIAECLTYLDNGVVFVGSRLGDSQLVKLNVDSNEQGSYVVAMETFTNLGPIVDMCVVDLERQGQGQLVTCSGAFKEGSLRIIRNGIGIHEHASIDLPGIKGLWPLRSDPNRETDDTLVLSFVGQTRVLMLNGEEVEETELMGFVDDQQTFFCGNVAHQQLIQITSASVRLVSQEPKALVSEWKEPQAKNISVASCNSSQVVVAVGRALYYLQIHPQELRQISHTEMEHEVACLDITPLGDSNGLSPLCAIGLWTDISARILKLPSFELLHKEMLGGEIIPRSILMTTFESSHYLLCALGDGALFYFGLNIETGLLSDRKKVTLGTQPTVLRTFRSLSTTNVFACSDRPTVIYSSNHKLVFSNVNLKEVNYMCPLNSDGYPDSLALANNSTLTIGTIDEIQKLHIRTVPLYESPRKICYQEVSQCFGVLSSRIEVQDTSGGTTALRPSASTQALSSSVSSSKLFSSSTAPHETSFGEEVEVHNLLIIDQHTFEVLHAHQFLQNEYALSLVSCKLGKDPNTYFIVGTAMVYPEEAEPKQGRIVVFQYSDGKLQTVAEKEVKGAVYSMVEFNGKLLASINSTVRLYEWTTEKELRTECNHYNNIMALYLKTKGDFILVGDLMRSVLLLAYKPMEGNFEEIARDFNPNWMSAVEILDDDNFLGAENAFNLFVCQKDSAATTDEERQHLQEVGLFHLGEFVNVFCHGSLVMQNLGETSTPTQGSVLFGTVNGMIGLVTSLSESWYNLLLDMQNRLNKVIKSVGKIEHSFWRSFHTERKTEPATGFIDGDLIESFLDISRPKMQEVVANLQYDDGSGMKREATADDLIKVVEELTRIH

Mino cells = assay: Tumor cell proliferation IC50 (CCK-8), Mino; conditions: Homo sapiens, 72 h, read-out: IC50 for inhibiting the proliferation of tumor cells, Mino;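 also: cell viability assessed with CCK-8 reagent after compound exposure, IC50 derived from plotted growth inhibition curves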
IKZF1 protein = IKZF1 protein (Homo sapiens (Human), UniProt Q13422+Q96SW2); assay: Western-blot assay of substrate protein degradation in hPBMC, IKZF1; type: cell-based; conditions: hPBMC cells, compound 500 nM, 24 hours, Western blot
Chain of IKZF1 protein (Q13422 whole entry): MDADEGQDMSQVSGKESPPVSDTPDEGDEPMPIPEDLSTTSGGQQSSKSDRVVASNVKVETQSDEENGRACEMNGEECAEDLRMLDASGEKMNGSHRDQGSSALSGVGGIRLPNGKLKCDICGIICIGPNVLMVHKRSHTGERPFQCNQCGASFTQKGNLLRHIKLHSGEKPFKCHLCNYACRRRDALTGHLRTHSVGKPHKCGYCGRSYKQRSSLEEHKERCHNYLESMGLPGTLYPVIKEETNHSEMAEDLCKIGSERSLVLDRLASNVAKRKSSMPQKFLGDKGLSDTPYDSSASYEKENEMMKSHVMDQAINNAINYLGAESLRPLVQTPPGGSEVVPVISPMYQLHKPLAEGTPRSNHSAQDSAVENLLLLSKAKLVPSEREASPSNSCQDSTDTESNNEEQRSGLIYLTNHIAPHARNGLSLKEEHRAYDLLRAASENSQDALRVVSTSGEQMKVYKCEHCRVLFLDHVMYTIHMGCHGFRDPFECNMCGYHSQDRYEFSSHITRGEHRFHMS
Chain of IKZF1 protein (Q96SW2 whole entry): as the sequence (Q96SW2 whole entry) above
Chain of IKZF1 protein (Q16531 whole entry partner): as the sequence (Q16531 whole entry partner) above

[1] = target: human Cereblon WT GST-tagged protein (Homo sapiens (Human), UniProt Q96SW2); assay: CRBN-binding affinity, HTRF (CEREBLON BINDING kit)
Chain of human Cereblon WT GST-tagged protein (Q96SW2 whole entry): as the sequence (Q96SW2 whole entry) above
Summary of the method: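 GST-tagged human WT Cereblon incubated with compound, then Thalidomide-Re tracer and anti-GST Eu antibody added. Displacement read by HTRF, reported as CRBN binding inhibition rate against blank control wells without protein.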

Chain of GSPT1 protein (P15170 whole entry): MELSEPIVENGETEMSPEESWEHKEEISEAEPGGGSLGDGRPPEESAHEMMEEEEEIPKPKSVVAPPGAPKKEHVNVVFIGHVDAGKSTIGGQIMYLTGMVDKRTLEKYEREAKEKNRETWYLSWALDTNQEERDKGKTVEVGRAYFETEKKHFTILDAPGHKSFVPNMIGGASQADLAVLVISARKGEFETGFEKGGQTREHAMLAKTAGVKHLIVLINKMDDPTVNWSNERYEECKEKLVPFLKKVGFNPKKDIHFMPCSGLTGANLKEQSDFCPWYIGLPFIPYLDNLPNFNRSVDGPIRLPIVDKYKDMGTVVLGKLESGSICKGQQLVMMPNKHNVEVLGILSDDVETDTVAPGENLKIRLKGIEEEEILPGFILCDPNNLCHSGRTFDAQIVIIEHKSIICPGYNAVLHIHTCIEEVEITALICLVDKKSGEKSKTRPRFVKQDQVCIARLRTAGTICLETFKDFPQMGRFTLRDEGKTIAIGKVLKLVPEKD
Chain of GSPT1 protein (Q96SW2 whole entry): as the sequence (Q96SW2 whole entry) above
Chain of GSPT1 protein (Q16531 whole entry partner): as the sequence (Q16531 whole entry partner) above

| IC50 (Mino cells) | IC50 [1] | Compound | residual substrate protein level, GSPT1 (GSPT1 protein) | residual substrate protein level, IKZF3 (IKZF3 protein) | residual substrate protein level, IKZF1 (IKZF1 protein) |
| --- | --- | --- | --- | --- | --- |
| 100 to 500 nM | 1280 nM | O=C1CCC(N2Cc3cc(CN4CCN(Cc5cccc(-c6ccc(Cl)cc6)c5)CC4)ccc3C2=O)C(=O)N1 (stereo not drawn) [GT-05629, 3-(5-((4-((4′-chloro-[1,1′-biphenyl]-3-yl)methyl)piperazin-1-yl)methyl)-1-oxoisoindolin-2-yl)piperidine-2,6-dione] |  |  |  |
|  | 710 nM | CC1(C)CCC(C(=O)N2CC3CCC2CN3Cc2ccc3c(c2)CN(C2CCC(=O)NC2=O)C3=O)=C(c2ccc(Cl)cc2)C1 (stereo not drawn) [GT-05662, 3-(5-((5-(4′-chloro-5,5-dimethyl-3,4,5,6-tetrahydro-[1,1′-biphenyl]-2-carbonyl)-2,5-diazabicyclo[2.2.2]octan-2-yl)methyl)-1-oxoisoindolin-2-yl)piperidine-2,6-dione] | B (B represents a residual substrate protein level of >50%) | A (A represents a residual substrate protein level of <50%) | B (B represents a residual substrate protein level of >50%) |
|  | 620 nM | CC1(C)CCC(CN2CC3(C2)CN(Cc2ccc4c(c2)CN(C2CCC(=O)NC2=O)C4=O)C3)=C(c2ccc(F)cc2)C1 (stereo not drawn) [GT-05670, 3-(5-((6-((4′-fluoro-5,5-dimethyl-3,4,5,6-tetrahydro-[1,1′-biphenyl]-2-yl)methyl)-2,6-diazaspiro[3.3]heptan-2-yl)methyl)-1-oxoisoindolin-2-yl)piperidine-2,6-dione] | A (A represents a residual substrate protein level of <50%) | A (A represents a residual substrate protein level of <50%) | A (A represents a residual substrate protein level of <50%) |
|  | 980 nM | CC1(C)CCC(C(=O)N2CCCN(Cc3ccc4c(c3)CN(C3CCC(=O)NC3=O)C4=O)CC2)=C(c2ccc(Cl)cc2)C1 (stereo not drawn) [GT-05680, 3-(5-((4-(4′-chloro-5,5-dimethyl-3,4,5,6-tetrahydro-[1,1′-biphenyl]-2-carbonyl)-1,4-diazepan-1-yl)methyl)-1-oxoisoindolin-2-yl)piperidine-2,6-dione] | B (B represents a residual substrate protein level of >50%) | A (A represents a residual substrate protein level of <50%) | B (B represents a residual substrate protein level of >50%) |
| 100 to 500 nM | 1160 nM | CC1(C)CCC(CN2CC3(C2)CN(Cc2ccc4c(c2)CN(C2CCC(=O)NC2=O)C4=O)C3)=C(c2ccc(Cl)cc2)C1 (stereo not drawn) [GT-05685, 3-(5-((6-((4′-chloro-5,5-dimethyl-3,4,5,6-tetrahydro-[1,1′-biphenyl]-2-yl)methyl)-2,6-diazaspiro[3.3]heptan-2-yl)methyl)-1-oxoisoindolin-2-yl)piperidine-2,6-dione] |  |  |  |
|  | 200 nM | CC1(C)CCC(CN2CCN(Cc3ccc4c(c3)CN(C3CCC(=O)NC3=O)C4=O)C(C(F)(F)F)C2)=C(c2ccc(Cl)cc2)C1 (stereo not drawn) [GT-05796, 3-(5-((4-((4′-chloro-5,5-dimethyl-3,4,5,6-tetrahydro-[1,1′-biphenyl]-2-yl)methyl)-2-(trifluoromethyl)piperazin-1-yl)methyl)-1-oxoisoindolin-2-yl)piperidine-2,6-dione] | A (A represents a residual substrate protein level of <50%) | B (B represents a residual substrate protein level of >50%) | B (B represents a residual substrate protein level of >50%) |
|  | 760 nM | CC1(C)CCC(C(=O)N2CCN(Cc3ccc4c(c3)CN(C3CCC(=O)NC3=O)C4=O)C(C(F)(F)F)C2)=C(c2ccc(Cl)cc2)C1 (stereo not drawn) [GT-05845, 3-(5-((4-(4′-chloro-5,5-dimethyl-3,4,5,6-tetrahydro-[1,1′-biphenyl]-2-carbonyl)-2-(trifluoromethyl)piperazin-1-yl)methyl)-1-oxoisoindolin-2-yl)piperidine-2,6-dione] | B (B represents a residual substrate protein level of >50%) | A (A represents a residual substrate protein level of <50%) | B (B represents a residual substrate protein level of >50%) |
|  | 940 nM | CC1(C)CCC(CN2CCN(Cc3ccc4c(c3)CN(C3CCC(=O)NC3=O)C4=O)C(C(F)(F)F)C2)=C(c2ccc(F)cc2)C1 (stereo not drawn) [GT-05846, 3-(5-((4-((4′-fluoro-5,5-dimethyl-3,4,5,6-tetrahydro-[1,1′-biphenyl]-2-yl)methyl)-2-(trifluoromethyl)piperazin-1-yl)methyl)-1-oxoisoindolin-2-yl)piperidine-2,6-dione] | A (A represents a residual substrate protein level of <50%) | B (B represents a residual substrate protein level of >50%) | B (B represents a residual substrate protein level of >50%) |

Second part, the compound before the results:

| Compound | IC50 (Mino cells) | IC50 [1] | residual substrate protein level, GSPT1 (GSPT1 protein) | residual substrate protein level, IKZF3 (IKZF3 protein) | residual substrate protein level, IKZF1 (IKZF1 protein) |
| --- | --- | --- | --- | --- | --- |
| O=C1CCC(N2C(=O)c3ccc(CN4CCN(Cc5cnc(-c6ccccc6)cn5)CC4)cc3C2=O)C(=O)N1 (stereo not drawn) [GT-05545, 2-(2,6-dioxopiperidin-3-yl)-5-((4-((5-phenylpyrazin-2-yl)methyl)piperazin-1-yl)methyl)isoindoline-1,3-dione] | 500 to 1000 nM |  | B (B represents a residual substrate protein level of >50%) | A (A represents a residual substrate protein level of <50%) | B (B represents a residual substrate protein level of >50%) |
| O=C1CCC(N2Cc3cc(CN4CCN(Cc5cccc(-c6cccs6)c5)CC4)ccc3C2=O)C(=O)N1 (stereo not drawn) [GT-05597, 3-(1-oxo-5-((4-(3-(thiophen-2-yl)benzyl)piperazin-1-yl)methyl)isoindolin-2-yl)piperidine-2,6-dione] | 100 to 500 nM | 1400 nM |  |  |  |
| O=C1CCC(N2Cc3cc(CN4CCN(Cc5ccc(-c6cccs6)o5)CC4)ccc3C2=O)C(=O)N1 (stereo not drawn) [GT-05627, 3-(1-oxo-5-((4-((5-(thiophen-2-yl)furan-2-yl)methyl)piperazin-1-yl)methyl)isoindolin-2-yl)piperidine-2,6-dione] | 100 to 500 nM | 260 nM |  |  |  |
| O=C1CCC(N2C(=O)c3ccc(CN4CCN(Cc5ccc(-c6ccncc6)nc5)CC4)cc3C2=O)C(=O)N1 (stereo not drawn) [GT-05634, 5-((4-([2,4′-bipyridin]-5-ylmethyl)piperazin-1-yl)methyl)-2-(2,6-dioxopiperidin-3-yl)isoindoline-1,3-dione] | 500 to 1000 nM |  | B (B represents a residual substrate protein level of >50%) | A (A represents a residual substrate protein level of <50%) | A (A represents a residual substrate protein level of <50%) |
| O=C1CCC(N2Cc3cc(CN4C5CC4CN(C(=O)c4ccccc4-c4ccc(Cl)cc4)C5)ccc3C2=O)C(=O)N1 (stereo not drawn) [GT-05665, 3-(5-((3-(4′-chloro-[1,1′-biphenyl]-2-carbonyl)-3,6-diazabicyclo[3.1.1]heptan-6-yl)methyl)-1-oxoisoindolin-2-yl)piperidine-2,6-dione] |  | 600 nM | A (A represents a residual substrate protein level of <50%) | B (B represents a residual substrate protein level of >50%) | B (B represents a residual substrate protein level of >50%) |
| O=C1CCC(N2Cc3cc(CN4CCN(Cc5cccc(-c6ccco6)c5)CC4)ccc3C2=O)C(=O)N1 (stereo not drawn) [GT-05692, 3-(5-((4-(3-(furan-2-yl)benzyl)piperazin-1-yl)methyl)-1-oxoisoindolin-2-yl)piperidine-2,6-dione] | 100 to 500 nM | 470 nM |  |  |  |
| O=C1CCC(N2Cc3cc(CN4C5CCC4CN(Cc4ccccc4-c4ccc(Cl)cc4)C5)ccc3C2=O)C(=O)N1 (stereo not drawn) [GT-05710, 3-(5-((3-((4′-chloro-[1,1′-biphenyl]-2-yl)methyl)-3,8-diazabicyclo[3.2.1]octan-8-yl)methyl)-1-oxoisoindolin-2-yl)piperidine-2,6-dione] |  | 1100 nM | A (A represents a residual substrate protein level of <50%) | A (A represents a residual substrate protein level of <50%) | B (B represents a residual substrate protein level of >50%) |
| O=C1CCC(N2Cc3cc(CN4CCN(Cc5cccc(-c6ccc[nH]6)c5)CC4)ccc3C2=O)C(=O)N1 (stereo not drawn) [GT-05733, 3-(5-((4-(3-(1H-pyrrol-2-yl)benzyl)piperazin-1-yl)methyl)-1-oxoisoindolin-2-yl)piperidine-2,6-dione] |  | 210 nM | A (A represents a residual substrate protein level of <50%) | A (A represents a residual substrate protein level of <50%) | B (B represents a residual substrate protein level of >50%) |
